The values below come from US20180105492A1, “COMPOUNDS DERIVED FROM 3-ALKYLAMINE-1H-INDOLYL ACRYLATE AND THEIR USE IN THE TREATMENT OF NEURODEGENERATIVE DISEASES” (FUNDACION PARA LA INVESTIGACION BIOMEDICA DEL HOSPITAL …, priority 2014, published 2018).

Molecules are shown by their SMILES.

The nature of assay [1]: Oxygen radical absorbance capacity (ORAC), free radical scavenger capacity. The settings on record: fluorescein/AAPH, pH 7.4, trolox = 1. The protocol:
In order to study the potential antioxidant effect of the compounds of the invention, we performed an oxygen radical absorbance capacity (ORAC) experiment.
For studying the free radical scavenger capacity, we measured the degree peroxide radical inhibition. Thus, scavenger capacity is measured as trolox equivalents and includes the disappearance of free radicals over time and the decrease of oxidative damage at the end of the experiment. The protocol used is based in the protocol developed by Ou and col. (Ou y col., 2001, J Agric Food Chem, 49: 4619-26) partially modified by Dávalos and col. (Davalos y col., 2004, J Agric Food Chem, 52: 48-54). The reaction was performed in phosphate tampon 75 mM (pH 7.4), with a final volume of 200 μL. 150 μL of fluorescein (final concentration of 70 nM) with 25 μL the compound of study at the desired concentration in triplicates, using surface transparent 96 well black plates for measuring fluorescence.
The mixture was pre-incubated during 15 min at 37° C. and, afterwards, 25 μL of a solution containing 2,2′-Azobis(2-amidinopropane) dihydrochloride (AAPH) (final concentration; 12 mM) were rapidly added. Fluorescence was immediately measured using a plate reader fluostar optima, using the filters of emission and excitation of […], respectively. Fluorescence intensity was measured during 90 min. Each compound was measured at 6 different concentrations. In the assay, fluorescein+AAPH in phosphate tampon was added as a blank and a calibration curve was performed using Trolox (1-8 μM). Every variable was prepared in duplicates and at least three independent experiments were performed for each compound. The curves of the compounds (F.I.—time) were normalized respect to the curve of the blank for each experiment and area under the curve (AUC) of the decreasing in fluorescence was calculated. AUC value of each compound was calculated subtracting the AUC of the blank. Regression curves between AUC and concentration of the compound were calculated for each of the samples. ORAC values were expressed as trolox equivalents with respect to the calibration curve of each assay, where the trolox value was considered 1.

For assay [2], the system named is SH-SY5Y cells. Nature of the assay: Neuroprotection against rotenone/oligomycin A, pre-incubation model, MTT. In kind it is cell-based. The settings on record: Homo sapiens, compound 1 μM pre-incubation 24 h, then Rot/Olig (30/10 μM); for viability at 1 µM: read-out: % Survival. The protocol:
(§1) SH-SY5Y cells [ECACC 94030304], in 5 to 16 passage after defreezing were maintained in Eagle media modified by Dulbecco (DMEM) containing 15 non-essential amino acids and supplemented with 10% fetal bovine serum, 1 mM glutamine, 50 units/mL penicillin/streptomycin (obtained from GIBCO, Madrid, Spain). Cells were seeded in flasks containing supplemented media and were maintained in an incubator at 37° C. and 5% CO2. 1:4 passes were performed twice per week. For the experiments, cells were seeded in 24 well-plates at a density of 2×10^5 cells/well, or in 96 well-plates at a density of 8×10^4 cells/well. For cytotoxicity experiments, cells were treated with the compounds before confluence with DMEM media supplemented with fetal bovine serum 1%.
(§2) In order to assess cellular viability, we measured the metabolic reduction of 3-(4,5-Dimethylthiazol-2-yl)-2,5 diphenyltetrazolium bromide (MTT). MTT is an indirect assay to measure cellular viability. It is a colorimetric method based on the reduction of 3-(4,5-Dimethylthiazol-2-yl)-2,5 diphenyltetrazolium. This process is performed by the mitochondrial enzyme succinate-dehydrogenase present in metabolic active cells. Thus, the water-soluble yellow MTT (tetrazolium salt) is transformed into a insoluble purple compound (formazan). Quantity of living cells is directly proportional to the quantity of formazan (Mosmann, 1983, J Immunol Methods, 65: 55-63). […] Therefore, with this assay we can measure cellular surviving and proliferation and also, we can determine the cytotoxicity of potential neuroprotective compounds. In order to assess cellular viability in SH-SY5Y cell line, we added 30 μl/well of MTT (5 mg/mL) and after 2 h, medium was carefully removed to avoid losing the formazan and was diluted in 300 μL of DMSO. Afterwards, samples were transferred to a 96 well-plate and the absorbance was measured at 570 nm using a absorbance/fluorescence reader FluoStar optima®. Every MTT assay was performed in triplicates. Absorbance values obtained with the toxic alone were subtracted to the absorbance values obtained in basal conditions (without treatment). That result was considered as the 100% of cell death and the values obtained with the compounds in the presence of the toxic stimulus were normalized as percentages of that value. For determining the surviving percentage, those percentages of cell death were subtracted to 100.
(§3) Neuroprotection elicited by the compounds of the invention 1-16: The activation of Nrf2-ARE pathway by different compounds exerts neuroprotective effects against toxic models based on oxidative stress via the expression of cytoprotective genes. […] We evaluated the neuroprotective potential of the compounds using the human neuroblastoma cell line using the following cytotoxicity models: 1) oxidative stress induced by rotenone+oligomycin, both blockers of the electron transport chain as previously described (Halliwell, 1992, J Neurochem, 59: 1609-23, Newhouse y col., 2004, Toxicol Sci, 79: 137-46), and 2) cytotoxicity induced by the electrophilic compound Menadione. This compound produces oxidative stress after being metabolized by microsomal enzymes in the cell which produces hydroxyl radical and oxygen reactive species. As a consequence, there is a depolarization of mitochondrial membrane generating a release of apoptotic factors such as cytochrome c, and activating the caspase cascade (Loor y col., 2010, Free Radic Biol Med, 49: 1925-36, Chuang y col., 2002, Cancer Res, 62: 6246-54). Caspase 3 activation can produce the lysis of proteins and induce DNA fragmentation, leading to cell death (Gerasimenko y col., 2002, J Cell Sci, 115: 485-97).
For this study we propose a protocol in which the cells are pre-incubated with each of the derivatives at 1 μM for 24 h. After the pre-incubation period, the medium was removed and replaced by culture medium with the rotenone/oligomycin-A (30 μM and 10 μM, respectively) toxic mixture. […]

Assay [3] deals with SH-SY5Y cells. The assay can be described thus: Neuroprotection against oxidative stress induced by menadione, pre- and co-incubation, MTT. In kind it is cell-based. The note with it: Homo sapiens, 24 h, compound 1 μM pre- and co-incubation, Menadione (8 mM); for viability at 1 µM: read-out: % Survival. The protocol: as §1, §2, §3
To further confirm the neuroprotective capacity in another model of oxidative stress, menadione was selected as toxic stimulus. […]

Turning to `CC(=O)NCCc1c[nH]c2ccc(OC(=O)/C=C/c3cccc(C(F)(F)F)c3)cc12` [Compound 14, 3-(2-acetamidoethyl)-1H-indol-5-yl (E)-3-(3-(trifluoromethyl)phenyl)acrylate], in assay [1], the “ORAC (Trolox eq.)” value is given as 4.13 ± 0.39 Trolox eq. For the same compound, in assay [2], the percent protection against toxin-induced cell death at 1 µM turned out to be 34.9% and the viability at 1 µM stood at 72.5 ± 2.92%. Further, in assay [3], the % protection against menadione toxicity at 1 µM turned out to be 44.8% and the viability at 1 µM turned out to be 78.5 ± 3.03%.
In the same order, the values of `CC(=O)NCCc1c[nH]c2ccc(OC(=O)/C=C/c3ccc(Br)cc3)cc12` [Compound 10, 3-(2-acetamidoethyl)-1H-indol-5-yl (E)-3-(4-bromophenyl)acrylate] are 2.53 ± 0.18 Trolox eq, 30.2%, 71.1 ± 2.61%, 27.6% and 72.4 ± 3.75%.
In the same order, the values of `CC(=O)NCCc1c[nH]c2ccc(OC(=O)/C=C/c3ccc(F)cc3)cc12` [Compound 9, 3-(2-acetamidoethyl)-1H-indol-5-yl (E)-3-(4-fluorophenyl)acrylate] are 3.44 ± 0.67 Trolox eq, 21.5%, 67.4 ± 2.13%, 29.6% and 71.6 ± 3.74%.
As for `COc1cc(/C=C/C(=O)Oc2ccc3[nH]cc(CCNC(C)=O)c3c2)ccc1O` [Compound 8, 3-(2-acetamidoethyl)-1H-indol-5-yl (E)-3-(4-hydroxy-3-methoxyphenyl)acrylate], in assay [1], the “ORAC (Trolox eq.)” value was found to be 8.04 ± 0.66 Trolox eq. Also, in assay [2], the percent protection against toxin-induced cell death at 1 µM was determined as 37% and the viability at 1 µM came to 74 ± 3.13%. In assay [3], the % protection against menadione toxicity at 1 µM stood at 69.4% and the viability at 1 µM is 89.9 ± 1.86%.
